Assay results reported in US5521155A, “Amides of teicoplanin compounds” (Gruppo Lepetit S.p.A, priority 1985, dated 1996).
In brackets after ≈: the same amount, converted by molar mass.

Experiments:
[1] = Isoelectric point (pI) by isoelectrofocusing with bioautography detection; assay type: physicochemical; details: IEF technique, polyacrylamide gel
Source text: The isoelectrofocusing (IEF) technique coupled with bioautography detection has been used for the determination of the pI of representative compounds of the invention using the following materials: AMPHOLINE carrier ampholytes (40% w/v) were purchased from LKB Produketer AB, Bromma, Sweden. Acrylamide, N,N'-methylenbisacrylamide (BIS), N,N,N',N'-tetramethylethylenediamine (TEMED) and ammonium persulfate were from Bio Rad Laboratorie, Richmond, Calif., USA. Glycerol and Antibiotic agar N. 1 (Grove and Randall medium N. 1) were from E. Merck Darmstadt FRG. GEL FIX polyester sheets were purchased from Serva Feinbiochemica Heidelberg. Phenolindo (2,6-dichlorophenol) came from BDH Chemicals Ltd. Poole, England.
IEF was made on gel slab using a LKB MULITPHOR 2117 cell and a Bio-Rad Power Supply Model 1420A. Slabs of 24.5×11.5 cm and 1 mm thickness were prepared on a sheet of GEL FIX. Polyacrylamide gels with a concentration of 8% T and with a cross-linkage of 4% C (30% T stock solution was prepared by dissolving 28.8 g of acrylamide and 1.2 g of bis-acrylamide in 100 ml distilled water), glycerol, 3.5% v/v, 2% AMPHOLINE, 0.05% ammonium persulphate as catalyst and 0.05% TEMED as accelerator. The carrier ampholite composition for 35 ml gelling solution was as follows:
The electrode solutions, as recommended by LKB for the respective pH range, were:
The gel was cooled to 4° C. with the aid of a LKB 2209 refrigerated constant temperature circulator. After prefocusing for 30 min. at 5 W, the samples (20 μl containing 0.2 to 2.5 μg of antibiotic) were loaded into the slot at the cathodic side. Electrofocusing was performed using 10 W constant power and was completed after 3-31/2 hours with a final potential of 1400 V.
The pH values were determined by dividing a portion of the gel into 1 cm sections, and eluting the individual pieces at room temperature with 1 ml of 10 mM KCl prior to pH readings.
The isoelectric point of each antibiotic was determined by interpolation on a curve obtained by plotting pH values versus the distance from the anode.
Polyacrylamide gel was placed on a 3 mm layer of agar medium N. 1 inoculated with 1% of Bacillus subtilis ATCC 6633 spore (0.5 OD at 600 nm). After 10 min the gel was removed and the plate was incubated overnight at 37° C. and examined for inhibition zones. The contrast between the area of lysis and that of bacterial growth was enhanced by use of Phenolindo(2,6-dichlorophenol) 1% w/v (oxidation-reduction indicator).

S. aureus Tour = assay: In vitro antibacterial activity, standard agar-dilution test (MIC); assay type: cell-based; details: inoculum about 10^4 CFU/ml, 18-24 h at 37° C.
Procedure: (§1) The culture medium ISOSENSITEST BROTH (Oxoid) and the colture medium TODD-[…] BROTH (Difco) are used for growing staphylococci and streptococci, respectively. Broth cultures are diluted so that the final inoculum is about 10^4 colony forming units/ml (CFU/ml).

S. pneumoniae UC 41 = assay: as above; assay type: cell-based; details: inoculum about 10^4 CFU/ml, 18-24 h at 37° C.
Procedure: as §1

E. coli SKF 12140 = assay: as above; assay type: cell-based; details: inoculum about 10^4 CFU/ml, 18-24 h at 37° C.
Procedure: as §1

[2] = tested on: Proteus vulgaris X 19H ATCC 881; assay: as above; assay type: cell-based; details: inoculum about 10^4 CFU/ml, 18-24 h at 37° C.
Procedure: as §1

S. pyogenes C 203 = assay: as above; assay type: cell-based; details: inoculum about 10^4 CFU/ml, 18-24 h at 37° C.
Procedure: as §1

S. faecalis ATCC 7080 = assay: as above; assay type: cell-based; details: inoculum about 10^4 CFU/ml, 18-24 h at 37° C.
Procedure: as §1

[3] = tested on: S. epidermidis ATCC 12228; assay: as above; assay type: cell-based; details: inoculum about 10^4 CFU/ml, 18-24 h at 37° C.
Procedure: as §1

[4] = tested on: Pseudomonas aeruginosa ATCC 10145; assay: as above; assay type: cell-based; details: inoculum about 10^4 CFU/ml, 18-24 h at 37° C.
Procedure: as §1

S. pyogenes L 49 = assay: In vivo test in mice experimentally infected with S. pyogenes L 49 (ED50); details: mice infected with S. pyogenes L 49; for ED50, route of administration os.: oral

Row | Isoelectric point (pI) [1] | MIC S. aureus Tour (S. aureus Tour) [µg/mL] | MIC S. pneumoniae UC 41 (S. pneumoniae UC 41) [µg/mL] | MIC E. coli SKF 12140 (E. coli SKF 12140) [µg/mL] | MIC Proteus vulgaris X 19H ATCC 881 [2] [µg/mL] | MIC S. pyogenes C 203 (S. pyogenes C 203) [µg/mL] | MIC S. faecalis ATCC 7080 (S. faecalis ATCC 7080) [µg/mL] | MIC S. epidermidis ATCC 12228 [3] [µg/mL] | MIC Pseudomonas aeruginosa ATCC 10145 [4] [µg/mL] | SMILES | ED50, route of administration os. (S. pyogenes L 49) [mg/kg] | ED50, route of administration s.c (S. pyogenes L 49) [mg/kg]
1 | 8.7 |  |  |  |  |  |  |  |  | CCCCCN(CCCCC)CCCNC(=O)C1NC(=O)C2NC(=O)C(NC(=O)C3NC(=O)C4NC(=O)C(Cc5ccc(c(Cl)c5)Oc5cc3cc(c5O)Oc3ccc(cc3Cl)C2OC2OC(CO)C(O)C(O)C2NC(C)=O)NC(=O)C(N)c2ccc(O)c(c2)Oc2cc(O)cc4c2)c2ccc(O)c(c2)-c2c(OC3OC(CO)C(O)C(O)C3O)cc(O)cc21 (stereo not shown) [Compound 43] |  | 
2 | 8.7 |  |  |  |  |  |  |  |  | CCCCCCN(CCCCCC)CCCNC(=O)C1NC(=O)C2NC(=O)C(NC(=O)C3NC(=O)C4NC(=O)C(Cc5ccc(c(Cl)c5)Oc5cc3cc(c5O)Oc3ccc(cc3Cl)C2OC2OC(CO)C(O)C(O)C2NC(C)=O)NC(=O)C(N)c2ccc(O)c(c2)Oc2cc(O)cc4c2)c2ccc(O)c(c2)-c2c(OC3OC(CO)C(O)C(O)C3O)cc(O)cc21 (stereo not shown) [Compound 44] |  | 
3 | 7.8 |  |  |  |  |  |  |  |  | COC(=O)CNC(=O)C1NC(=O)C2NC(=O)C(NC(=O)C3NC(=O)C4NC(=O)C(Cc5ccc(c(Cl)c5)Oc5cc3cc(c5O)Oc3ccc(cc3Cl)C2OC2OC(CO)C(O)C(O)C2NC(C)=O)NC(=O)C(N)c2ccc(O)c(c2)Oc2cc(O)cc4c2)c2ccc(O)c(c2)-c2c(OC3OC(CO)C(O)C(O)C3O)cc(O)cc21 (stereo not shown) [Compound 47] |  | 
4 | 5.8 |  |  |  |  |  |  |  |  | CC(=O)NC1C(OC2c3ccc(c(Cl)c3)Oc3cc4cc(c3O)Oc3ccc(cc3Cl)CC3NC(=O)C(N)c5ccc(O)c(c5)Oc5cc(O)cc(c5)C(NC3=O)C(=O)NC4C(=O)NC3C(=O)NC2C(=O)NC(C(=O)NCC(=O)O)c2cc(O)cc(O)c2-c2cc3ccc2O)OC(CO)C(O)C1O (stereo not shown) [Compound 56] |  | 
5 | 8.6 |  |  |  |  |  |  |  |  | CCCCCCN(CCCCCC)CCCNC(=O)C1NC(=O)C2NC(=O)C(NC(=O)C3NC(=O)C4NC(=O)C(Cc5ccc(c(Cl)c5)Oc5cc3cc(c5O)Oc3ccc(cc3Cl)C2O)NC(=O)C(N)c2ccc(O)c(c2)Oc2cc(O)cc4c2)c2ccc(O)c(c2)-c2c(O)cc(O)cc21 (stereo not shown) [Compound 62] |  | 
6 | 5.8 |  |  |  |  |  |  |  |  | NC1C(=O)NC2Cc3ccc(c(Cl)c3)Oc3cc4cc(c3O)Oc3ccc(cc3Cl)C(O)C3NC(=O)C(NC(=O)C4NC(=O)C(NC2=O)c2cc(O)cc(c2)Oc2cc1ccc2O)c1ccc(O)c(c1)-c1c(O)cc(O)cc1C(C(=O)NCC(=O)O)NC3=O (stereo not shown) [Compound 65] |  | 
7 |  | 0.06 | 0.06 | 4 | 32 | 0.06 | 0.12 | 0.06 | 64 | CCN1CCCC1CNC(=O)C1NC(=O)C2NC(=O)C(NC(=O)C3NC(=O)C4NC(=O)C(Cc5ccc(c(Cl)c5)Oc5cc3cc(c5O)Oc3ccc(cc3Cl)C2O)NC(=O)C(N)c2ccc(O)c(c2)Oc2cc(O)cc4c2)c2ccc(O)c(c2)-c2c(O)cc(O)cc21.Cl.Cl (stereo not shown) [Compound 79] | > 300 | 1.25
8 |  | 0.06 (≈ 0.0468 µM) | 0.06 (≈ 0.0468 µM) | 8 (≈ 6.23 µM) | 64 (≈ 49.9 µM) | 0.06 (≈ 0.0468 µM) | 0.12 (≈ 0.0935 µM) | 0.06 (≈ 0.0468 µM) | 64 (≈ 49.9 µM) | CN(C)CCN(C)C(=O)C1NC(=O)C2NC(=O)C(NC(=O)C3NC(=O)C4NC(=O)C(Cc5ccc(c(Cl)c5)Oc5cc3cc(c5O)Oc3ccc(cc3Cl)C2O)NC(=O)C(N)c2ccc(O)c(c2)Oc2cc(O)cc4c2)c2ccc(O)c(c2)-c2c(O)cc(O)cc21 (stereo not shown) [Compound 93] | > 300 | 1.25
9 |  | 0.06 | 0.06 | 4 | 32 | 0.06 | 0.12 | 0.06 | 16 | CN(C)CCNC(=O)C1NC(=O)C2NC(=O)C(NC(=O)C3NC(=O)C4NC(=O)C(Cc5ccc(c(Cl)c5)Oc5cc3cc(c5O)Oc3ccc(cc3Cl)C2O)NC(=O)C(N)c2ccc(O)c(c2)Oc2cc(O)cc4c2)c2ccc(O)c(c2)-c2c(O)cc(O)cc21.Cl.Cl (stereo not shown) [Compound 94] | > 300 | 1.25
10 |  | 0.12 | 0.12 | 8 | 32 | 0.06 | 0.12 | 0.06 | 32 | CN(C)CCCCNC(=O)C1NC(=O)C2NC(=O)C(NC(=O)C3NC(=O)C4NC(=O)C(Cc5ccc(c(Cl)c5)Oc5cc3cc(c5O)Oc3ccc(cc3Cl)C2O)NC(=O)C(N)c2ccc(O)c(c2)Oc2cc(O)cc4c2)c2ccc(O)c(c2)-c2c(O)cc(O)cc21.O=C(O)C(F)(F)F.O=C(O)C(F)(F)F (stereo not shown) [Compound 97] | > 300 | 0.54
11 |  | 0.06 (≈ 0.0473 µM) | 0.12 (≈ 0.0946 µM) | 8 (≈ 6.3 µM) | 32 (≈ 25.2 µM) | 0.06 (≈ 0.0473 µM) | 0.12 (≈ 0.0946 µM) | 0.06 (≈ 0.0473 µM) | 32 (≈ 25.2 µM) | NCCCCNC(=O)C1NC(=O)C2NC(=O)C(NC(=O)C3NC(=O)C4NC(=O)C(Cc5ccc(c(Cl)c5)Oc5cc3cc(c5O)Oc3ccc(cc3Cl)C2O)NC(=O)C(N)c2ccc(O)c(c2)Oc2cc(O)cc4c2)c2ccc(O)c(c2)-c2c(O)cc(O)cc21 (stereo not shown) [Compound 99] |  | 
12 | 9.0 | 0.06 (≈ 0.0458 µM) | 0.12 (≈ 0.0915 µM) | 8 (≈ 6.1 µM) | 128 (≈ 97.6 µM) | 0.06 (≈ 0.0458 µM) | 0.12 (≈ 0.0915 µM) | 0.06 (≈ 0.0458 µM) | 64 (≈ 48.8 µM) | CN(C)CCCCCNC(=O)C1NC(=O)C2NC(=O)C(NC(=O)C3NC(=O)C4NC(=O)C(Cc5ccc(c(Cl)c5)Oc5cc3cc(c5O)Oc3ccc(cc3Cl)C2O)NC(=O)C(N)c2ccc(O)c(c2)Oc2cc(O)cc4c2)c2ccc(O)c(c2)-c2c(O)cc(O)cc21 (stereo not shown) [Compound 100] |  | 
13 |  | 0.06 (≈ 0.0463 µM) | 0.06 (≈ 0.0463 µM) | 4 (≈ 3.08 µM) | 64 (≈ 49.3 µM) | 0.06 (≈ 0.0463 µM) | 0.12 (≈ 0.0925 µM) | 0.06 (≈ 0.0463 µM) | 64 (≈ 49.3 µM) | NCCCCCCNC(=O)C1NC(=O)C2NC(=O)C(NC(=O)C3NC(=O)C4NC(=O)C(Cc5ccc(c(Cl)c5)Oc5cc3cc(c5O)Oc3ccc(cc3Cl)C2O)NC(=O)C(N)c2ccc(O)c(c2)Oc2cc(O)cc4c2)c2ccc(O)c(c2)-c2c(O)cc(O)cc21 (stereo not shown) [Compound 102] |  | 
14 |  | 2 (≈ 1.42 µM) | 0.5 (≈ 0.354 µM) | 64 (≈ 45.4 µM) | > 128 | 0.5 (≈ 0.354 µM) | 1 (≈ 0.709 µM) | 0.5 (≈ 0.354 µM) | 128 (≈ 90.7 µM) | CCCCOC(=O)C(CCCNC(=N)N)NC(=O)C1NC(=O)C2NC(=O)C(NC(=O)C3NC(=O)C4NC(=O)C(Cc5ccc(c(Cl)c5)Oc5cc3cc(c5O)Oc3ccc(cc3Cl)C2O)NC(=O)C(N)c2ccc(O)c(c2)Oc2cc(O)cc4c2)c2ccc(O)c(c2)-c2c(O)cc(O)cc21 (stereo not shown) [Compound 103] |  | 
